Assay results: patent US20260284076A1, “TESTOSTERONE AND DIFLUOROMETHYLORNITHINE COMBINATION THERAPY FOR PROSTATE CANCER” (The Johns Hopkins University, priority 2023, published 2026)
Read-outs that look alike come from different tables or passages of the source.

Legend:
[1] = system: patients with CRPC progressing on Enza (Cohort A) or Abi (Cohort B); type: in vivo, human
Description: The RESTORE study (NCT02090114) was an NIH sponsored Phase II study designed to assess the safety and efficacy of BAT in patients (n=30 per cohort) with CRPC progressing on Enza (Cohort A) or Abi (Cohort B), FIG. 18A (34,39). The primary endpoint of the first part of the study was to assess PSA response to BAT. Secondary endpoints included objective response, safety, and quality of life. The second part of the study was to determine in BAT could re-sensitize patients to repeat exposure to second line therapy that patients were progressing on prior to receiving BAT. Thus, patients progressing on Enza were re-exposed to Enza after BAT and similarly for Abi. Both arms of this study met the primary endpoint. PSA50 response to BAT was 30% in patient's post-Enza and 18% post-Abi, FIG. 18B. […] Overall duration of response to BAT and duration of response to re-exposure was longer in the post-Enza vs. post-Abi cohort. The PSAso response to re-exposure to Enza was 71% vs. only 21% for patients re-exposed to Abi, FIG. 19B (7). A third cohort was later added (Cohort C) for patients progressing on ADT alone. Overall, 90 patients were treated on this study over a 4-year period (2014-2018).

[2] = system: chronically castrated patients with rising PSA and CRPC; assay: Pilot study of BAT with oral etoposide, then second line therapy post-BAT; type: in vivo, human; conditions: for PSA decline upon re-challenge: agent previously progressed on
Description: Based on the preclinical results and potential mechanisms for growth inhibition that include androgen-induced double strand breaks and stabilization of AR preventing relicensing, we have conducted a pilot study evaluating the efficacy and safety of pharmacologic doses of testosterone to produce high dose T levels in conjunction with oral etoposide in chronically castrated patients with rising PSA and CRPC (37). Patients who had been continuously castrate for more than one year with minimal metastatic disease burden (≤5 total bone metastases and ≤10 total sites of metastases) and/or rising PSA were eligible. To achieve rapid cycling between high dose and near castrate serum T (i.e., BAT) patients received intramuscular injection of 400 mg testosterone cypionate every 28 days. For the first 3 cycles of therapy patients received BAT plus oral etoposide 100 mg po/day days 1-14 of a 28-day cycle. After 3 cycles PSA response and objective response were assessed. Those patients with a PSA that was declining from peak levels and no objective evidence of disease progression or worsening pain were continued on therapy. Given the toxicity associated with etoposide and the lack of clinical response in an earlier trial (38), patients who responded after 3 cycles of testosterone plus etoposide were continued on testosterone alone based on protocol amendment.

[3] = system: MYC in LNCaP and VCaP cells; assay: MYC expression by western blot, RT-PCR, RNAseq; type: cell-based, human; conditions: to the level of SPA monotherapy
Description: (§1) FIG. 5A, FIG. 5B, FIG. 5C, FIG. 5D, and FIG. 5E show: FIG. 5A, MYC expression by IHC in a metastatic tumor biopsy from a patient before and after 3 months of BAT. FIG. 5B, Quantification of MYC protein expression from metastatic tumor biopsies from patients before and after 3 months of BAT color-coded by response (non-responder NR; responder R). […] Vinculin was used as a loading control. FIG. 5D, Principal component analysis of RNA and ATAC sequencing of LNCaP cells treated for 5 days with R1881 10 nM (SPA). […] Vinculin was used as a loading control;

[4] = system: patients with early CRPC (rising PSA and minimal bone disease); conditions: cited from earlier work
[5] = system: patients with CRPC; conditions: cited from earlier work
[6] = system: LNCaP cells; assay: Putrescine abundance by HPLC in cells and media; type: cell-based, human; conditions: 10 nM
Description: (§2) Vinculin was used as a loading control. FIG. 2F, Polyamine synthesis pathway.

[7] = system: LNCaP cells; assay: Colony formation (clonal survival); type: cell-based, human; conditions: Homo sapiens, LNCaP; 0.5 nM
Description: (§3) FIG. 3A. […] Ns, not significant. FIG. 3B. […] Ns, not significant. FIG. 3C. […] P values by ANOVA;

[8] = system: VCaP cells; assay: Colony formation (clonal survival); type: cell-based, human; conditions: Homo sapiens, VCaP; 0.5 nM
Description: as §3

[9] = system: asymptomatic patients with CRPC progressing on Abi; assay: TRANSFORMER randomized Phase II study, BAT vs. Enza with crossover; type: in vivo, human
Method: The TRANSFORMER study (NCT02286921) was a DOD-sponsored randomized Phase II study designed to compare the efficacy of BAT vs. Enza in asymptomatic patients with CRPC progressing on Abi, FIG. 19A (2). The study was conducted at 17 academic centers across the US. The study was coordinated by the Prostate Cancer Disease Group clinical research team at Johns Hopkins, who performed regulatory oversight, study/site monitoring, and data analyses. From 2015-2018, 195 patients underwent 1:1 randomization to either standard dose Enza (n=101) or BAT (n=94) at 400 mg IM every 28 days. The primary endpoint was clinical/radiographic PFS. At time of progression, patients were given the option to crossover to the alternate therapy. The trial was designed to show a 50% improvement in the primary endpoint for BAT vs. Enza. […] Objective response was 24.4% for BAT and 4.2% for Enza (p=0.067). Best PSA50 was 26.4% for BAT and 25.5% for Enza (p=0.697).
At time of progression, 46 (49%) of patients on the Enza arm crossed over to receive BAT and 34 (33.7%) crossed over from BAT to receive Enza and were available for analysis. Remarkably, the PSAso response for patients who received Enza after BAT was 72.7% compared to 25.5% for patients receiving Enza immediately after Abi, FIG. 19D. Objective response in the Enza post-BAT patients was 28.6% compared to 4.2% post-Abi, FIG. 19B. […] The logical extension of these findings and the hypothesis of this proposal is that patients are likely to respond again to further repeat cycles of BAT and Enza, but this treatment strategy has yet to be explored in the clinical trial setting.

[10] = system: patients with CRPC; assay: BAT clinical studies, overall experience; type: in vivo, human
Description: A major driver of castration resistance is the adaptive upregulation of AR activity, often through AR protein overexpression, to a sufficient level to allow for renewed growth. This marked overexpression of AR makes PCa cells once again vulnerable to hormone shock, achieved not through further androgen blockade, but through exposure to supraphysiologic levels of androgen (SPA). Based on extensive preclinical studies, we developed Bipolar Androgen Therapy (BAT), which involves cyclic administration of SPA as treatment for CRPC.
Inhibition of signaling through the androgen receptor (AR) is the mainstay of treatment of advanced PCa. […] This phase of the disease is associated with poor prognosis and limited therapeutic options. The majority of PCas are addicted to signaling through AR and adaptively upregulate AR-activity, via mechanisms such as AR overexpression, to permit sustained AR signaling despite castration and AR inhibitors (1,2). Studies dating back nearly thirty years indicate that high expression of AR induced by prolonged castration becomes a vulnerability of CRPC cells in vitro and in mouse xenografts to supraphysiological androgen (SPA), which induces cell death and growth arrest in this context (3,4). On the basis of these studies, we developed an innovative treatment called Bipolar Androgen Therapy (BAT) for patients with CRPC, in which SPA is administered intermittently to result in cycling of serum testosterone from supraphysiological to near castrate levels. This rapid cycling is intended to reduce adaptation AR regulation associated with chronic exposure to high or low levels of testosterone, while simultaneously targeting the spectrum of AR expression present in heterogeneous CRPC tumors (5). We have now tested BAT in more than 350 patients with CRPC (6-10).

[11] = system: patients with CRPC; assay: Plasma putrescine in patients treated with BAT (COMBAT trial); conditions: human, in vivo
Description: as §2

[12] = system: MYC; assay: MYC expression in metastatic tumor biopsies before and after BAT; type: in vivo, human; conditions: responding patients
Description: as §1

[13] = system: SKCaP-1R patient-derived xenograft tumors; assay: Global metabolomics of SKCaP-1R tumors; type: in vivo, castrated NSG mice; conditions: 14 days of treatment
[14] = system: patients with advanced CRPC, long-term castrates; conditions: cited from earlier work

For `C[C@]12CC[C@H](O)CC1=CC[C@@H]1[C@@H]2CC[C@]2(C)C(c3cccnc3)=CC[C@@H]12` [Abi], the “PSA50 response to re-exposure (re-challenge) post-BAT” value ([1]; re-exposed to agent progressed on before BAT) was 21% and the “patients with >50% PSA decline on second line therapy” value ([2]; post-BAT) was “Four of 4”.
In the case of `C[S+](CC[C@H](N)C(=O)O)C[C@H]1O[C@@H](n2cnc3c(N)ncnc32)[C@H](O)[C@@H]1O` (stereo partly shown) [SAM, S-adenosylmethionine], the “rescue of MYC in cells treated with SPA and DFMO” value [3] is reported as “sufficient to rescue MYC”.
In the case of `C[C@]12CC[C@H]3[C@@H](CCC4=CC(=O)CC[C@@]43C)[C@@H]1CC[C@@H]2O` [transdermal T], the “median concentration of T” value ([4]; 2.5 mg/day transdermal) is listed as 305 ng/dL, the “median concentration of T” value ([4]; 5.0 mg/day transdermal) is listed as 308 ng/dL and the “median concentration of T” value ([4]; 7.5 mg/day transdermal) is listed as 297 ng/dL. For the same compound, the “patients with a decrease in PSA” value ([4]; 15 patients) was 20%, the “grade 3 or 4 toxicities” value ([4]; in vivo) was “no grade 3 or 4 toxicities were observed with the exception of one person” and the “largest decrease in PSA” value ([4]; in vivo) was 43%. The “patients with symptomatic progression” value ([4]; in vivo) was “one”, the “grade 3 or 4 toxicities, pain flares” value ([5]; 7.5 mg/day) was “no grade 3 or 4 toxicities and no pain flares” and the objective responses ([5]; 7.5 mg/day) was “No objective responses”. The “patients with >50% PSA decline” value ([5]; 12 patients) was “one” and the “patients with at least 20% PSA declines” value ([5]; 12 patients) was “Four”.
With `CC1(C)NC(=O)N(c2ccc([N+](=O)[O-])c(C(F)(F)F)c2)C1=O` [nilutamide] the “PSA decline upon re-challenge” value ([2]; post-BAT) was 44.3%.
With `C[C@]1(O)CC[C@H]2[C@@H]3CCC4=CC(=O)CCC4=C3C=C[C@@]21C` [R1881, 17α-methyl-19-nor-δ9,11-testosterone] the “putrescine, intracellular and extracellular” value [6] was “Marked intracellular and extracellular accumulation”, the inhibition at 0.0005 µM [7] was about 15% and the inhibition at 0.0005 µM [8] was about 15%.
In the case of `C[C@]12CC[C@H]3[C@@H](CCC4=CC(=O)CC[C@@]43C)[C@@H]1CC[C@@H]2OC(=O)CCC1CCCC1` [BAT, androst-4-en-3-one, 17-(3-cyclopentyl-1-oxopropoxy)-, (17ß)-], the PSA50 response ([9]; BAT after Enza (crossover)) is reported as 22.2%, the PSA50 response ([9]; initial treatment immediately after Abi, no prior crossover) is reported as 26.4% and the “clinical/radiographic PFS” value ([9]; randomized arms) is reported as 5.62 m. For the same compound, the Objective response ([9]; randomized arms, post-Abi) was 24.4%, the “QoL surveys (FACIT Fatigue, IIEF, SF-36 subscales)” value ([1]; BAT compared to baseline on ADT) was “significant improvement” and the “Adverse events to BAT, grade” value ([1]; in vivo) was “primarily Grade 1-2”. For the same compound, the “patients with grade 3 hypertension attributed to BAT” value ([1]; in vivo) was 3 patients, the “PSA50 response to BAT” value ([1]; post-Abi (Cohort B)) was 18% and the “PSA50 response to BAT” value ([1]; post-Enza (Cohort A)) was 30%. The “subjects experiencing an AE” value ([2]; BAT monotherapy phase) was “four”, the “patients developing new bone metastases” value ([2]; completing 3 months of therapy) was “None of the 14 patients” and the “AEs during BAT monotherapy phase” value ([2]; in vivo) was “rare and low grade”. For the same compound, the “new pain, skeletal events or urinary obstruction due to prostate cancer” value ([2]; in vivo) was “None of the 14 patients”, the “patients with decline in PSA from baseline” value ([2]; in vivo) was “Seven of fourteen” and the “PSA decline/response and objective responses, patients” value ([2]; patients who completed three cycles) was 50%. The “median time to PSA progression” value ([2]; seven patients with PSA decline, range 95 to 454 days) was 221 days, the “complete response (CR)” value ([2]; ten RECIST-evaluable subjects) was 10% and the “partial responses (PRs)” value ([2]; ten RECIST-evaluable subjects) was 40%. The stable disease ([2]; ten RECIST-evaluable subjects, median follow up 91 days) was 30%, the “progressive disease (PD)” value ([2]; ten subjects with RECIST-evaluable soft tissue metastases) was 20% and the PSA50 response rate ([10]; 56 days of BAT monotherapy, mCRPC) was “approximately 25%”. For the same compound, the PSA50 response rate ([10]; 64 days of BAT monotherapy, mCRPC) was “approximately 25%”, the “PSA/objective (biochemical and objective) response” value ([10]; human, in vivo) was 20-30% and the quality of life ([10]; human, in vivo) was “improved quality of life”. The objective response rate ([10]; mCRPC, monotherapy) was “approximately 30%”, the plasma putrescine abundance [11] was “increased” and the “MYC expression in tumor biopsies” value [12] was “decreased”.
In the case of `N=C(N)c1cccc2c1CC/C2=N\N=C(N)N` [SAM486], the “rescue of MYC in cells treated with SPA and DFMO” value [3] is reported as “phenocopied”.
For `C[C@]12CC[C@H]3[C@@H](CCC4=CC(=O)CC[C@@]43C)[C@@H]1CC[C@@H]2O` [testosterone], the “abundance of polyamine precursors ornithine and SAM in tumors” value [13] is listed as “decreased”, the “abundance of polyamines putrescine and spermine in tumors” value [13] is listed as “increased” and the “clinical improvement (pain, prostate size, phosphatases)” value ([14]; Brendler et al. 1949, parenteral) is listed as “considerable improvement in several patients”. The “patients with subjective improvement” value ([14]; long-term castrate group, at least one month) was 4 of 5 and the “patients with decline of acid phosphatase” value ([14]; longer course of testosterone) was 2/5.
With `CC(O)(CS(=O)(=O)c1ccc(F)cc1)C(=O)Nc1ccc(C#N)c(C(F)(F)F)c1` (stereo not shown) [bicalutamide] the “PSA decline upon re-challenge” value ([2]; post-BAT) was 30.9%.
